Measured values reported in patent US20090246787A1, “METHOD AND APPARATUS FOR DETERMINING CHEMOSENSITIVITY” (SYSMEX CORPORATION, priority 2008, published 2009).
Like-named read-outs stand apart in the source and are kept apart here.

Assays:
CAMA-1 cells = assay: MTT living-cell assay, doxorubicin IC50; format: cell-based; details: Homo sapiens, 72 h, cultured 3 days with doxorubicin, MTT method, read-out: IC50 class (chemosensitivity estimated by IC50)
Description: CAMA-1 cells were cultured in 5 vol % CO2 at 37° C., in an Eagle minimum essential medium containing Earle's BSS, 2 mM of L-glutamine, 1.0 mM of sodium pyruvate, 0.1 mM of nonessential amino acids, 1.5 g/L of sodium bicarbonate and 10% by mass of fetal bovine serum.
(§1) Each of the breast cancer cell lines, that is, HS 578T cells, MDA-MB-435S cells, BT20 cells, CAMA-1 cells, T47D cells, MDA-MB-361 cells, UACC893 cells and BT474 cells, was diluted stepwise to produce 7 serial cell dilutions.
(§2) The number of living cells in each of the cultures thus obtained was determined by an MTT method of using 3-(4,5-dimethylthiazol-2-yl)-2,5-diphenyl-2H-tetrazolium bromide. The number of living cells to be inoculated was established for each type of cell so as to enable the influence of the drug to be evaluated in the measurement range where the primary correlation between the number of cells in the serial dilution to be inoculated and the determined number of the living cells was kept high.
Thereafter, the number of living cells in each of the cultures thus obtained was measured by the MTT method of using 3-(4,5-dimethylthiazol-2-yl)-2,5-diphenyl-2H-tetrazolium bromide. This measurement was conducted 4 times. […]

T47D cells = assay: MTT living-cell assay, doxorubicin IC50; format: cell-based; details: Homo sapiens, 72 h, cultured 3 days with doxorubicin, MTT method, read-out: IC50 class (chemosensitivity estimated by IC50)
Description: (§3) Human breast cancer cell lines, that is, HS 578T cells (ATCC HTB-126R), MDA-MB-435s cells (ATCC HTB-129), BT20 cells (ATCC HTB-19), CAMA-1 cells (ATCC HTB-21), T47D cells (ATCC HTB-133), MDA-MB-361 cells (ATCC HTB-27), UACC893 cells (ATCC CRL-1902) and BT474 cells (ATCC HTB-20) were purchased from American Type Culture Collection (ATCC) and cultured under culture conditions recommended by ATCC, as follow.
T-47D cells were cultured in 5 vol % CO2 at 37° C., in an RPMI 1640 medium containing 2 mM of L-glutamine, 1.0 mM of HEPES, 1.0 mM of sodium pyruvate, 4.5 g/L of glucose, 1.5 g/L of sodium bicarbonate, 10% by mass of fetal bovine serum and 0.2 unit/mL of bovine insulin. […]
as §2
(§4) Thereafter, the number of living cells in each of the cultures thus obtained was measured by the MTT method of using 3-(4,5-dimethylthiazol-2-yl)-2,5-diphenyl-2H-tetrazolium bromide. […]

CDK1 [1] = details: 100 nM doxorubicin, 24 hours
CDK1 [2] = details: 100 nM doxorubicin, 24 hours; remark: listed apart in the source
BT20 cells = assay: MTT living-cell assay, doxorubicin IC50; format: cell-based; details: Homo sapiens, BT-20, 72 h, cultured 3 days with doxorubicin, MTT method, read-out: IC50 class (chemosensitivity estimated by IC50)
Description: as §3
BT-20 cells were cultured in 5 vol % CO2 at 37° C., in an Eagle minimum essential medium containing Earle's BSS, 2 mM of L-glutamine, 1.0 mM of sodium pyruvate, 0.1 mM of nonessential amino acids, 1.5 g/L of sodium bicarbonate and 10% by mass of fetal bovine serum. […]
as §2, §4

[3] = used generally in chemotherapy; cited from earlier work
MDA-MB-361 cells = assay: MTT living-cell assay, doxorubicin IC50; format: cell-based; details: Homo sapiens, 72 h, cultured 3 days with doxorubicin, MTT method, read-out: IC50 class (chemosensitivity estimated by IC50)
HS 578T cells = assay: MTT living-cell assay, doxorubicin IC50; format: cell-based; details: Homo sapiens, 72 h, cultured 3 days with doxorubicin, MTT method, read-out: IC50 class (chemosensitivity estimated by IC50)
Description: as §3
HS 578T cells were cultured in 5 vol % CO2 at 37° C., in a Dulbecco's modified Eagle medium containing 4 mM of L-glutamine, 10% by mass of fetal bovine serum and 0.01 mg/L of bovine insulin, with glucose at a final concentration of 4.5 g/L and sodium bicarbonate at a final concentration of 1.5/L. […]
as §2, §4

MDA-MB-435S cells = assay: MTT living-cell assay, doxorubicin IC50; format: cell-based; details: Homo sapiens, 72 h, cultured 3 days with doxorubicin, MTT method, read-out: IC50 class (chemosensitivity estimated by IC50)
BT474 cells = assay: MTT living-cell assay, doxorubicin IC50; format: cell-based; details: Homo sapiens, BT-474, 72 h, cultured 3 days with doxorubicin, MTT method, read-out: IC50 class (chemosensitivity estimated by IC50)
Description: BT-474 cells were cultured in 5 vol % CO2 at 37° C., in a Dulbecco's modified medium containing 10% by mass of fetal bovine serum.
as §1, §2
Thereafter, the number of living cells in each of the cultures thus obtained was measured by the MTT method of using 3-(4,5-dimethylthiazol-2-yl)-2,5-diphenyl-2H-tetrazolium bromide. This measurement was conducted 4 times.
On the basis of the determined number of living cells, the concentration of doxorubicin (IC50) at which the ratio of the number of living cells in the culture not treated with doxorubicin to the number of living cells in the culture treated with doxorubicin became 50% was determined.

UACC893 cells = assay: MTT living-cell assay, doxorubicin IC50; format: cell-based; details: Homo sapiens, UACC-893, 72 h, cultured 3 days with doxorubicin, MTT method, read-out: IC50 class (chemosensitivity estimated by IC50)

IC50 (T47D cells): > 200 nM
IC50 (BT20 cells): < 200 nM
IC50 (MDA-MB-361 cells): > 200 nM
IC50 (MDA-MB-435S cells): < 200 nM
IC50 (BT474 cells): > 200 nM
Compound: COc1cccc2c1C(=O)c1c(O)c3c(c(O)c1C2=O)C[C@@](O)(C(=O)CO)C[C@@H]3O[C@H]1C[C@H](N)[C@H](O)[C@H](C)O1 [doxorubicin]
IC50 (CAMA-1 cells): < 200 nM
difference of CDK1 activity level (not treated − treated with doxorubicin) (CDK1 [1]; BT20 cells): great difference
ratio of CDK1 activity level (treated with doxorubicin / not treated) (CDK1 [1]; BT20 cells): low
difference of CDK1 activity level (not treated − treated with doxorubicin) (CDK1 [1]; BT474 cells): a little difference, or a minus difference
ratio of CDK1 activity level (treated with doxorubicin / not treated) (CDK1 [1]; BT474 cells): high
difference of CDK1 activity level (not treated − treated with doxorubicin) (CDK1 [1]; CAMA-1 cells): great difference
ratio of CDK1 activity level (treated with doxorubicin / not treated) (CDK1 [1]; CAMA-1 cells): low
difference of CDK1 activity level (not treated − treated with doxorubicin) (CDK1 [1]; HS 578T cells): great difference
ratio of CDK1 activity level (treated with doxorubicin / not treated) (CDK1 [1]; HS 578T cells): low
difference of CDK1 activity level (not treated − treated with doxorubicin) (CDK1 [1]; MDA-MB-361 cells): a little difference, or a minus difference
ratio of CDK1 activity level (treated with doxorubicin / not treated) (CDK1 [1]; MDA-MB-361 cells): high
difference of CDK1 activity level (not treated − treated with doxorubicin) (CDK1 [1]; MDA-MB-435S cells): great difference
ratio of CDK1 activity level (treated with doxorubicin / not treated) (CDK1 [1]; MDA-MB-435S cells): low
difference of CDK1 activity level (not treated − treated with doxorubicin) (CDK1 [1]; T47D cells): a little difference, or a minus difference
ratio of CDK1 activity level (treated with doxorubicin / not treated) (CDK1 [1]; T47D cells): high
difference of CDK1 activity level (not treated − treated with doxorubicin) (CDK1 [1]; UACC893 cells): a little difference, or a minus difference
ratio of CDK1 activity level (treated with doxorubicin / not treated) (CDK1 [1]; UACC893 cells): high
difference of CDK1 specific activity (not treated − treated with doxorubicin) (CDK1 [2]; BT20 cells): high
ratio of CDK1 specific activity (treated with doxorubicin / not treated) (CDK1 [2]; BT20 cells): low
difference of CDK1 specific activity (not treated − treated with doxorubicin) (CDK1 [2]; BT474 cells): a little difference, or a minus difference
ratio of CDK1 specific activity (treated with doxorubicin / not treated) (CDK1 [2]; BT474 cells): high
difference of CDK1 specific activity (not treated − treated with doxorubicin) (CDK1 [2]; CAMA-1 cells): high
ratio of CDK1 specific activity (treated with doxorubicin / not treated) (CDK1 [2]; CAMA-1 cells): low
difference of CDK1 specific activity (not treated − treated with doxorubicin) (CDK1 [2]; HS 578T cells): high
ratio of CDK1 specific activity (treated with doxorubicin / not treated) (CDK1 [2]; HS 578T cells): low
difference of CDK1 specific activity (not treated − treated with doxorubicin) (CDK1 [2]; MDA-MB-361 cells): a little difference, or a minus difference
ratio of CDK1 specific activity (treated with doxorubicin / not treated) (CDK1 [2]; MDA-MB-361 cells): high
difference of CDK1 specific activity (not treated − treated with doxorubicin) (CDK1 [2]; MDA-MB-435S cells): high
ratio of CDK1 specific activity (treated with doxorubicin / not treated) (CDK1 [2]; MDA-MB-435S cells): low
difference of CDK1 specific activity (not treated − treated with doxorubicin) (CDK1 [2]; T47D cells): a little difference, or a minus difference
ratio of CDK1 specific activity (treated with doxorubicin / not treated) (CDK1 [2]; T47D cells): high
difference of CDK1 specific activity (not treated − treated with doxorubicin) (CDK1 [2]; UACC893 cells): a little difference, or a minus difference
ratio of CDK1 specific activity (treated with doxorubicin / not treated) (CDK1 [2]; UACC893 cells): high
effective blood concentration [3]: about 200 nM
IC50 (HS 578T cells): < 200 nM
IC50 (UACC893 cells): > 200 nM
